{"source": "patent US7384975B2", "about": "“Substituted furochromenes, preparation thereof and their antiinflammatory action” (GlaxoSmithKline Istrazivacki Centar Zagreb d.o.o., priority 2003, dated 2008)", "tested_on": "Balb/C mice", "assay": "Model of lung eosinophilia in mice (ovalbumin sensitization and provocation)", "type": "in vivo", "conditions": "i.n. 2 mg/kg daily from 2 days prior to the provocative test until the end, lavage 48 hours after ovalbumin provocation", "experimental": "Model of Lung Eosinophilia in Mice\nMale Balb/C mice (Charles River) of 20-25 g of body weight were randomly divided into groups. They were sensitized by i.p. application of ovalbumin (Sigma) on days zero and fourteen. On day twenty the mice were subjected to a provocative test by i.n. application of ovalbumin (positive control and test groups) or PBS (negative control). After 48 hours the animals were anesthetized and the lungs were rinsed with 1 mL of PBS. The cells were centrifuged on Cytospin 3 cytocentrifuge (Shandon). Then the cells were stained with Diff-Quick (Dade) and the percentage of eosinophils was determined by differential counting of at least 100 cells.\nBeclomethazone was used as a standard substance in addition to positive and negative controls. The compound was applied daily i.n. in a dose of 2 mg/kg for 2 days prior to the provocative test and until the end of the investigation.\nThe compound 13 reduced the number of eosinophils in the lavage and histological preparations of lungs for 50% in relation to the positive control group."}
{"smiles": "O=c1oc2cc(O)cc(O)c2c(O)c1-c1cc2c(=O)oc3cc(O)cc(O)c3c2o1", "note": "[Compound 13, 7,9-Dihydroxy-2-(4,5,7-trihydroxy-2-oxo-2H-chromene-3-yl)-4H-furo[3,2-c]chromene-4-one]", "values": [{"measurement": "reduction of the number of eosinophils in the lavage and histological preparations of lungs in relation to the positive control group", "result": 50, "unit": "%"}]}
